Values after ≈ are worked out from the molar mass of the structure shown. Values joined by “and” are separate entries in the source; they are usually repeats but may differ in a detail not shown here. Equal entries are not always repeated. Where two headings read alike, the source gives them in different places.
Columns and labels:
[1] = system: MDA-MB-231; experiment: MTT cytotoxicity assay, MDA-MB-231; conditions: for IC50: Homo sapiens; for % viability: MDA
[2] = molecular target: EGFR (Homo sapiens, UniProt P00533); experiment: In vitro EGFR enzyme inhibition assay (ELISA); conditions: for EGFR %inh: lab report 01-11-2021
Sequence of EGFR (P00533 25-1210): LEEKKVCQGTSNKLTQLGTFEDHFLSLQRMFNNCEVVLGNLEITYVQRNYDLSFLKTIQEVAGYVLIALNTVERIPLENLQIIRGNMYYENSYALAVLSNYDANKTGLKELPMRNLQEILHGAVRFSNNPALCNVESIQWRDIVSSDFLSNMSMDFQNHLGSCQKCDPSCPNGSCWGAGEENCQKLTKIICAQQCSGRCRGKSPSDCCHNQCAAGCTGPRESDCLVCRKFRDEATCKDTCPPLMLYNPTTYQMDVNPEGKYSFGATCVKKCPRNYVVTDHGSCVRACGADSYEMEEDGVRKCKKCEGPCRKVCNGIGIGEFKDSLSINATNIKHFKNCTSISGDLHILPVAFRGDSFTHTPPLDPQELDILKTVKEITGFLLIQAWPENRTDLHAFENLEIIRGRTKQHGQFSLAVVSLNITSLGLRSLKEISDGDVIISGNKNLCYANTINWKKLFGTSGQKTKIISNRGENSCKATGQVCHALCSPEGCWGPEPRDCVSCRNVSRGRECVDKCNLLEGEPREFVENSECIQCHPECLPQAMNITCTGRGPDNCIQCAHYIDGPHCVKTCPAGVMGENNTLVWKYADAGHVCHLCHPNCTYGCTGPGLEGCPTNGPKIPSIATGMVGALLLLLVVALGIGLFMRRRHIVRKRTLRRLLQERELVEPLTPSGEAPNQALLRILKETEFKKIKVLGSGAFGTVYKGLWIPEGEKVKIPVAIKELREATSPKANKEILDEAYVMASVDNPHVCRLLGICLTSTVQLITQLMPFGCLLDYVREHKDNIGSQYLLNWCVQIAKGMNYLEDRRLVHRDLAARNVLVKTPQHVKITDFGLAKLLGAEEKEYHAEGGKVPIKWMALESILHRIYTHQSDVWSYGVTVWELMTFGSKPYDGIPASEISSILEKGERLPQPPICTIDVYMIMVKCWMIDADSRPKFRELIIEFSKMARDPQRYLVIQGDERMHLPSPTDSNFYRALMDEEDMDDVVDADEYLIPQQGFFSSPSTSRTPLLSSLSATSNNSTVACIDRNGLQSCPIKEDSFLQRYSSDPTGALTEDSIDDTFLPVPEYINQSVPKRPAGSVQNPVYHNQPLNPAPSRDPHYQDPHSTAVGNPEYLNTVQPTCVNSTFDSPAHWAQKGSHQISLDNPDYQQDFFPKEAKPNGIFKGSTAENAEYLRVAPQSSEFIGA

[3] = in vitro; conditions: human, MCF-10A cells (nonmalignant breast)
[4] = system: MCF-10A; experiment: MTT cytotoxicity assay, nonmalignant MCF-10A; conditions: read-out: MCF-10A IC50; MTT, nonmalignant MCF-10A;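 also: MTT assay with absorbance read at 570 nm after 48 h exposure of cells to serial compound concentrations at 37 °C, testing selectivity against nonmalignant versus cancer cells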
[5] = molecular target: T1, aromatase (ARO) (Homo sapiens, UniProt P11511); experiment: In vitro aromatase (ARO) enzyme inhibition assay (ELISA)
T1 sequence (P11511 1-503): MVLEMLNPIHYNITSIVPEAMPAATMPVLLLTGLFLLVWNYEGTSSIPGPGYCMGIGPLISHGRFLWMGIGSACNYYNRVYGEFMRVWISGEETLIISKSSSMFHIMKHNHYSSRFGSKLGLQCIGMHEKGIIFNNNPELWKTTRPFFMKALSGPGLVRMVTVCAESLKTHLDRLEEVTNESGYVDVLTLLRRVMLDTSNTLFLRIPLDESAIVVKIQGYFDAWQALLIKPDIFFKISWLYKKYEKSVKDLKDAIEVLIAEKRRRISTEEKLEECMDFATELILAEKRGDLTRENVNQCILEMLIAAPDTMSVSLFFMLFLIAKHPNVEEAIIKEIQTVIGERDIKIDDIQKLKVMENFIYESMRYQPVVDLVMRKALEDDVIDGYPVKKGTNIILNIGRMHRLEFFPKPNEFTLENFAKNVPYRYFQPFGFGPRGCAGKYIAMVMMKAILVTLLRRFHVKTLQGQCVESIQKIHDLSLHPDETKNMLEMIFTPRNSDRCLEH

[6] = system: MCF-7; experiment: MTT cytotoxicity assay, MCF-7; conditions: for IC50: Homo sapiens
[7] = system: ARO; design: method as in PMID 21341743, PMID 28512028, PMID 15358790, PMID 24607878, PMID 30360952; conditions: reported coumarin derivatives, Fig. 1b; read-out: ARO inhibitior IC50; cited from earlier work

For `O=C(OCc1cc(=O)oc2cc(O)ccc12)c1ccccc1` [Compound 2, (7-Hydroxy-2-oxo-2H-chromen-4-yl)methyl benzoate], the IC50 ([1]; MDA-MB-231, read-out: MDA-MBA-231 IC50) was 51900 ± 840 nM, the IC50 ([1]; MDA-MB-231, read-out: cytotoxicity_IC50 MDA) was 15.4 ± 0.84 µg/mL and the “% viability” value ([1]; 0.4ug (log conc. -0.41)) was 75.87% and 75.875%. For the same compound, the “% viability” value ([1]; 1.6ug (log conc. 0.19)) was 65.56% and 65.561%, the “% viability” value ([1]; 6.25ug (log conc. 0.8)) was 57.358% and 57.36% and the “% viability” value ([1]; 25ug (log conc. 1.4)) was 47.527% and 47.53%. The “% viability” value ([1]; 100ug (log conc. 2)) was 36.5501% and 36.55%, the IC50 ([2]; EGFR IC50, lab report 01-11-2021, 10 compounds) was 864 nM and the IC50 ([2]; EGFR inhibition IC50) was 864 ± 54 nM. It also gave an EGFR %inh ([2]; conc 0.01 (unit not given)) of 20%, an EGFR %inh ([2]; conc 0.1 (unit not given)) of 41% and an EGFR %inh ([2]; conc 1 (unit not given)) of 63%. The EGFR %inh ([2]; conc 10 (unit not given)) was 84%, the “Percentage above Reference IC50 (potency relative to erlotinib)” value ([2]; reference Erlotinib) was 9.722% and the IC50 at 48 h [3] was 55 ± 2.68 µg/mL (≈ 186 µM). It also gave a viability at 48 h, 0.4 ug [3] of 88%, a viability at 48 h, 1.6 ug [3] of 77.2% and a viability at 48 h, 6.25 ug [3] of 66.5%. It also gave a viability at 48 h, 25 ug [3] of 57.6%, a viability at 48 h, 100 ug [3] of 44.4% and an IC50 [4] of 186000 ± 2680 nM. For the same compound, the IC50 ([5]; ARO inhibition IC50) was 216 ± 10 nM, the IC50 ([5]; Aromatase IC50, lab report 14-12-2020) was 216 nM and the inhibition at 10 pg/mL ([5]; read-out: %inh) was 37%. It also gave an inhibition at 0.0001 µg/mL ([5]; read-out: %inh) of 54%, an inhibition at 0.001 µg/mL ([5]; read-out: %inh) of 68% and an inhibition at 0.01 µg/mL ([5]; read-out: %inh) of 89%. The IC50 ([6]; MCF7, read-out: MCF-7 IC50) was 6000 ± 110 nM, the IC50 ([6]; MCF7, read-out: cytotoxicity_IC50 mcf7) was 1.78 ± 0.11 µg/mL and the “% viability” value ([6]; MCF7, 0.4ug) was 58.765%. For the same compound, the “% viability” value ([6]; MCF7, 1.6ug) was 52.469%, the “% viability” value ([6]; MCF7, 6.3ug) was 41.79% and the “% viability” value ([6]; MCF7, 25ug) was 32.963%. For the same compound, the “% viability” value ([6]; MCF7, 100ug) was 21.0494%.
In the case of `O=c1cc(Cn2ccnc2)c2ccc(Oc3ccc(F)c(F)c3)cc2o1` [II], the IC50 [7] is given as 47 nM.
For `COc1ccc2c(Cc3ccccc3)c(-c3ccc(Cl)cc3)c(=O)oc2c1` [IV], the IC50 [7] is listed as 80 nM.

Reference: article PMC10435442, “Developing multitarget coumarin based anti-breast cancer agents: synthesis and molecular modeling study” (Scientific Reports, 2023)
